According to PMC7093416, “Selective USP7 inhibition elicits cancer cell killing through a p53-dependent mechanism” (Scientific Reports, 2020):

Tested on: panel of 484 cancer cell lines
Experiment: PRISM cancer cell line profiling, 5 days
Format: cell-based
Set-up: AUC: unit not given beside the values
Description: Cancer cell line profiling was performed using the Broad’s PRISM platform. Cell treatment and data analysis were performed as described in Yu et al[42]. Raw Luminex signal was converted to AUC values for each cell line as described. The resulting AUC profile for each compound was modeled against DepMap using the limma package in R[71]. Because hotspot mutation analysis was performed against DepMap, TP53 annotations in Fig. 6c,d are directly from DepMap.

`CN1CCN(CCC(=O)Nc2ccc3c(=O)n(CC4(O)CCN(C(=O)[C@@H](CCCNC(=O)c5ccc6c(Cl)c7c(nc6c5)CCCC7)Cc5ccccc5)CC4)cnc3c2)CC1` [XL177A] was tested, and the AUC (RVH421_SKIN) was 0.7933, the AUC (S117_SOFT_TISSUE) was 0.8952 and the AUC (SBC5_LUNG) was 1.121. For the same molecule, the AUC (SCABER_URINARY_TRACT) was 0.8461, the AUC (SCC25_UPPER_AERODIGESTIVE_TRACT) was 0.7649 and the AUC (SF126_CENTRAL_NERVOUS_SYSTEM) was 1.059. The AUC (SF295_CENTRAL_NERVOUS_SYSTEM) was 1.367, the AUC (SF539_CENTRAL_NERVOUS_SYSTEM) was 0.7901 and the AUC (SH4_SKIN) was 0.8355. It also gave an AUC (SH10TC_STOMACH) of 0.9409, an AUC (SIMA_AUTONOMIC_GANGLIA) of 1.153 and an AUC (SJSA1_BONE) of 0.9454. It also gave an AUC (SKES1_BONE) of 1.123, an AUC (SKHEP1_LIVER) of 1.003 and an AUC (SKLU1_LUNG) of 1.145. It also gave an AUC (SKMEL2_SKIN) of 1.16, an AUC (SKMEL3_SKIN) of 1.119 and an AUC (SKMEL5_SKIN) of 1.147. For the same molecule, the AUC (SKMEL24_SKIN) was 1.297, the AUC (SKMEL30_SKIN) was 0.992 and the AUC (SKMES1_LUNG) was 0.9519. The AUC (SKNAS_AUTONOMIC_GANGLIA) was 1.0969, the AUC (SKNBE2_AUTONOMIC_GANGLIA) was 1.099 and the AUC (SKOV3_OVARY) was 0.9025. The AUC (SKUT1_SOFT_TISSUE) was 1.15, the AUC (SNB75_CENTRAL_NERVOUS_SYSTEM) was 0.9344 and the AUC (SNGM_ENDOMETRIUM) was 1.144. For the same molecule, the AUC (SNU46_UPPER_AERODIGESTIVE_TRACT) was 1.075, the AUC (SNU61_LARGE_INTESTINE) was 1.293 and the AUC (SNU81_LARGE_INTESTINE) was 1.343. The AUC (SNU213_PANCREAS) was 0.7501, the AUC (SNU245_BILIARY_TRACT) was 1.4902 and the AUC (SNU308_BILIARY_TRACT) was 1.159. For the same molecule, the AUC (SNU398_LIVER) was 0.9557, the AUC (SNU407_LARGE_INTESTINE) was 0.9921 and the AUC (SNU410_PANCREAS) was 1.104. The AUC (SNU423_LIVER) was 0.9049, the AUC (SNU449_LIVER) was 1.072 and the AUC (SNU466_CENTRAL_NERVOUS_SYSTEM) was 0.6104. For the same molecule, the AUC (SNU601_STOMACH) was 1.062, the AUC (SNU668_STOMACH) was 0.8134 and the AUC (SNU685_ENDOMETRIUM) was 0.8198. It also gave an AUC (SNU719_STOMACH) of 0.6005, an AUC (SNU738_CENTRAL_NERVOUS_SYSTEM) of 0.9451 and an AUC (SNU761_LIVER) of 1.358. It also gave an AUC (SNU840_OVARY) of 0.9553, an AUC (SNU869_BILIARY_TRACT) of 1.237 and an AUC (SNU886_LIVER) of 1.085. For the same molecule, the AUC (SNU1041_UPPER_AERODIGESTIVE_TRACT) was 1.036, the AUC (SNU1066_UPPER_AERODIGESTIVE_TRACT) was 1.434 and the AUC (SNU1076_UPPER_AERODIGESTIVE_TRACT) was 1.032. It also gave an AUC (SNU1077_ENDOMETRIUM) of 1.075, an AUC (SNU1079_BILIARY_TRACT) of 1.101 and an AUC (SNU1105_CENTRAL_NERVOUS_SYSTEM) of 1.015. The AUC (SNU1196_BILIARY_TRACT) was 1.095, the AUC (SNU1214_UPPER_AERODIGESTIVE_TRACT) was 0.7181 and the AUC (SNUC2A_LARGE_INTESTINE) was 1.088. For the same molecule, the AUC (SNUC4_LARGE_INTESTINE) was 1.036, the AUC (SNUC5_LARGE_INTESTINE) was 1.147 and the AUC (SQ1_LUNG) was 0.9875. For the same molecule, the AUC (SUIT2_PANCREAS) was 0.9816, the AUC (SW480_LARGE_INTESTINE) was 1.095 and the AUC (SW579_THYROID) was 0.8837. It also gave an AUC (SW620_LARGE_INTESTINE) of 1.161, an AUC (SW780_URINARY_TRACT) of 0.8743 and an AUC (SW837_LARGE_INTESTINE) of 1.139. For the same molecule, the AUC (SW900_LUNG) was 1.083, the AUC (SW948_LARGE_INTESTINE) was 1.148 and the AUC (SW1088_CENTRAL_NERVOUS_SYSTEM) was 1.163. The AUC (SW1271_LUNG) was 1.0015, the AUC (SW1353_BONE) was 0.7826 and the AUC (SW1573_LUNG) was 1.097. For the same molecule, the AUC (SW1710_URINARY_TRACT) was 0.9553, the AUC (SW1990_PANCREAS) was 0.9791 and the AUC (T3M10_LUNG) was 1.003. It also gave an AUC (T24_URINARY_TRACT) of 1.033, an AUC (T47D_BREAST) of 1.05 and an AUC (T98G_CENTRAL_NERVOUS_SYSTEM) of 0.9138. For the same molecule, the AUC (TCCPAN2_PANCREAS) was 1.167, the AUC (TCCSUP_URINARY_TRACT) was 1.301 and the AUC (TE1_OESOPHAGUS) was 1.2696. The AUC (TE4_OESOPHAGUS) was 1.044, the AUC (TE5_OESOPHAGUS) was 0.9519 and the AUC (TE6_OESOPHAGUS) was 0.8165. The AUC (TE8_OESOPHAGUS) was 1.003, the AUC (TE9_OESOPHAGUS) was 1.141 and the AUC (TE10_OESOPHAGUS) was 0.9335. The AUC (TE11_OESOPHAGUS) was 1.05, the AUC (TEN_ENDOMETRIUM) was 0.8216 and the AUC (TM31_CENTRAL_NERVOUS_SYSTEM) was 1.2102. The AUC (TM87_SOFT_TISSUE) was 1.188, the AUC (TOV21G_OVARY) was 0.5189 and the AUC (TOV112D_OVARY) was 1.085. For the same molecule, the “mean diff. between TP53 functional WT and functional mutant populations (AUC)” value (TP53 annotation by functional scores of Giacomelli et al.) was 0.072 ± 0.016, the AUC (TT2609C02_THYROID) was 0.9464 and the AUC (TT_OESOPHAGUS) was 1.06. The AUC (TT_THYROID) was 0.8609, the AUC (TUHR4TKB_KIDNEY) was 1.102 and the AUC (U2OS_BONE) was 1.296. For the same molecule, the AUC (U118MG_CENTRAL_NERVOUS_SYSTEM) was 1.069, the AUC (U251MG_CENTRAL_NERVOUS_SYSTEM) was 0.9403 and the AUC (UACC62_SKIN) was 0.9957. For the same molecule, the AUC (UACC257_SKIN) was 0.801, the AUC (UBLC1_URINARY_TRACT) was 0.854 and the AUC (UMUC1_URINARY_TRACT) was 0.8933. It also gave an AUC (UO31_KIDNEY) of 1.106, an AUC (VMCUB1_URINARY_TRACT) of 0.9786 and an AUC (VMRCRCW_KIDNEY) of 1.013. The AUC (VMRCRCZ_KIDNEY) was 1.099, the AUC (WM88_SKIN) was 1.176 and the AUC (WM793_SKIN) was 1.125. The AUC (WM983B_SKIN) was 1.093, the AUC (WM1799_SKIN) was 0.5219 and the AUC (WM2664_SKIN) was 0.9262. The AUC (YAPC_PANCREAS) was 1.218, the AUC (YD8_UPPER_AERODIGESTIVE_TRACT) was 0.881 and the AUC (YD10B_UPPER_AERODIGESTIVE_TRACT) was 0.9499. The AUC (YD15_SALIVARY_GLAND) was 0.7713, the AUC (YD38_UPPER_AERODIGESTIVE_TRACT) was 0.8781 and the AUC (YH13_CENTRAL_NERVOUS_SYSTEM) was 0.9484. The AUC (YKG1_CENTRAL_NERVOUS_SYSTEM) was 0.9563 and the AUC (ZR751_BREAST) was 0.7595.
